Data as given in patent publication US9062004B2, “Cannabinoid-2 agonists” (Allergan, Inc., priority 2010, dated 2015).
Read-outs that look alike come from different tables or passages of the source.

What was measured:
[1] = target: human CB2 cannabinoid receptor (Homo sapiens (Human), UniProt P34972); test: Radioligand binding assay, CB2 ([3H]-CP 55,940 competition); details: for CB2 Selectivity: CB2 versus CB1 binding (ratio of CB1 IC50 to CB2 IC50); for IC50: plasma membranes of HEK 293 EBNA cells transfected with human CB2, 0.72 nM [3H]-CP 55,940, NA = not active
Description: (§1) A. Radioligand Binding Assay
(§2) Plasma membranes prepared from HEK 293 EBNA cells transfected with human CB1 or CB2 cannabinoid receptors ([…] protein, receptor concentration; PerkinElmer) were used for the radioligand binding studies. The composition of incubation buffer for CB1 assay was 50 mM Tris base, 2.5 mM EDTA, 5 mM MgCl2 and 0.5 mg/ml fatty acid free BSA and for CB2 assay was 50 mM Tris base, 2.5 mM EGTA, 5 mM MgCl2 and 1 mg/ml fatty acid free BSA; pH was adjusted to 7.4 by adding 1N HCl. Plasma membranes were diluted with incubation buffer to provide a final protein concentration of 2.4 μg (CB1) or 8 μg (CB2) per well in non-binding surface polystyrene 96-well assay plates (Corning). Compound solutions were prepared in silanized glass tubes and dispensed using pipette tips with SUPERSLIK™ surface. Competition studies were performed using a final concentration of 0.72 nM [^3H]-CP 55,940 (100-180 Ci/mmol, specific activity; PerkinElmer) against test compounds. Non-specific binding was determined using 10 uM of unlabeled CP 55,940. Incubations were performed in 96-well assay plates at a final volume of 200 ul for 90 min (CB1) or 60 min (CB2) at room temperature. Binding reactions were terminated by the addition of ice-cold incubation buffer and rapid filtration through a glass fiber filter using a cell harvester (Inotech). This was followed by 8 additional washes. The glass fiber filter (0.26 mm thickness, 1-1.5 um retention; Inotech) was presoaked in cold incubation buffer containing 0.05% polyethylenimine. The filters were oven-dried at 50° C. for 60 min and counting performed using a Beckman Coulter LS 6500 Multi-Purpose Scintillation Counter (Beckman-Coulter). Binding was determined in duplicate for at least 4 separate experiments.

[2] = target: human CB1 cannabinoid receptor (Homo sapiens (Human), UniProt P21554); test: Radioligand binding assay, CB1 ([3H]-CP 55,940 competition); details: plasma membranes of HEK 293 EBNA cells transfected with human CB1; 0.72 nM [3H]-CP 55,940; NA = not active
Description: as §1, §2

[3] = test system: mouse isolated vas deferens; test: Mouse isolated vas deferens (MVD) bioassay, electrically stimulated contractions; format: cell-based; details: Mus musculus
[4] = vas deferens of male Swiss Webster mice, electrically evoked contractions, NA = not active, read-out: MVD Assay EC50

Chain of human CB2 cannabinoid receptor (P34972 whole entry): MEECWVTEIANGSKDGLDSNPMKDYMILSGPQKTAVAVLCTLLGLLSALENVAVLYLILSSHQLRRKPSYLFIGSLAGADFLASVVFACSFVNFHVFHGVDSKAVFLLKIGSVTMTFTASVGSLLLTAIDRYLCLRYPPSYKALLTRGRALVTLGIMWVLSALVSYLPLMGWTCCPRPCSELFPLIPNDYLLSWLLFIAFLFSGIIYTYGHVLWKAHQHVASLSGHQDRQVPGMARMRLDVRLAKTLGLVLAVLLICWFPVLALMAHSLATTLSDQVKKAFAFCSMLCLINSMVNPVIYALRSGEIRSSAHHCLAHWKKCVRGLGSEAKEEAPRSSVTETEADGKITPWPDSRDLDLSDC
Chain of human CB1 cannabinoid receptor (P21554 whole entry): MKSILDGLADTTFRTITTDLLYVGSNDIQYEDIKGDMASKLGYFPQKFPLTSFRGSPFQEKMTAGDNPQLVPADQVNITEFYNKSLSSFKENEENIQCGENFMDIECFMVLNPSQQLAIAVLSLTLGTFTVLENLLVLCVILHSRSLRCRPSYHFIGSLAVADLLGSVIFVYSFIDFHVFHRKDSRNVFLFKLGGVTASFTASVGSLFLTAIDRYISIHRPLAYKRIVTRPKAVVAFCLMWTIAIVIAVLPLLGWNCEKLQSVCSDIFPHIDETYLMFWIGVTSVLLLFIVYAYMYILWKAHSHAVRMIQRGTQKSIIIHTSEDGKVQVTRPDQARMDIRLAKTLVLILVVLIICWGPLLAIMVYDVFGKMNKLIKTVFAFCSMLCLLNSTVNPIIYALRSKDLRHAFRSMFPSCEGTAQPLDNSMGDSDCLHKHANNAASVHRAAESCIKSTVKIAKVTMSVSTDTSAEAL

Row | Compound | CB2 Selectivity [1] | IC50 [1] [nM] | IC50 [2] [nM] | EC50 [3, 4] [nM] | EC50 ([3]; read-out: MVD Assay EC50 (nM)) [nM]
1 | CNc1cnn(C2CC(C)(C)CC(C)(C)C2)c(=O)c1Cl [Compound 3, 4-Chloro-5-methylamino-2-(3,3,5,5-tetramethylcyclohexyl)pyridazin-3-one] | >28 | 355 | > 10000 | 2900 | –
2 | CC1(C)CC(n2ncc(Cl)c(Cl)c2=O)CC(C)(C)C1 [Compound 2, 4,5-Dichloro-2-(3,3,5,5-tetramethyl-cyclohexyl)pyridazin-3-one] | >26 | 389 | > 10000 | > 10000 | –
3 | CN(C)CCNc1cnn(C2CC(C)(C)CC(C)(C)C2)c(=O)c1Cl [Compound 12, 4-Chloro-5-(2-dimethylaminoethylamino)-2-(3,3,5,5-tetramethyl-cyclohexyl)pyridazin-3-one] | >49 | 204 | > 10000 | 2900 | –
4 | CN(C)c1cnn(C2CC(C)(C)CC(C)(C)C2)c(=O)c1Cl [Compound 4, 4-Chloro-5-dimethylamino-2-(3,3,5,5-tetramethylcyclohexyl) pyridazin-3-one] | 60 | 17 | 1020 | 82 | –
5 | CC1(C)CC(n2ncc3nn(CCN4CCOCC4)cc3c2=O)CC(C)(C)C1 [Compound 37, 2-(2-Morpholin-4-ylethyl)-5-(3,3,5,5-tetramethylcyclohexyl)pyrazolo[3,4-d]pyridazin-4-one] | >7 | 1510 | > 10000 | – | 1400
6 | CCCNc1cnn(C2CC(C)(C)CC(C)(C)C2)c(=O)c1Br [Compound 13, 4-Bromo-5-propylamino--2-(3,3,5,5-tetramethylcyclohexyl)pyridazin-3-one] | 36 | 4.8 | 174 | 21 | –
